These results are taken from ChEMBL document CHEMBL3232711, “Novel inhibitors of the MDM2-p53 interaction featuring hydrogen bond acceptors as carboxylic acid isosteres” (J Med Chem, 2014).

Series [1] in a line: Intrinsic clearance in human hepatocytes measured per 10^6 cells. It counts as ADME, cell-based, Hepatocyte. The settings on record: read-out: CLH.
Series [2] can be described thus: Clearance in mouse at 0.5 mg/kg, iv. In kind it is ADME, organism-based. Details: dose 0.5 mg/kg, route intravenous. The settings on record: in vivo.
The nature of series [3]: Clearance in rat at 0.5 mg/kg, iv. It counts as ADME, organism-based. Details: dose 0.5 mg/kg, route intravenous. The settings on record: in vivo.
Series [4] can be described thus: Volume of distribution at steady state in mouse at 0.5 mg/kg, iv. The settings on record: in vivo, read-out: Vdss. In kind it is ADME, organism-based. Details: dose 0.5 mg/kg, route intravenous.
Series [5] can be described thus: Half life in rat at 0.5 mg/kg, iv. It counts as ADME, organism-based. Details: dose 0.5 mg/kg, route intravenous. The settings on record: in vivo.
A short description of series [6]: Half life in mouse at 0.5 mg/kg, iv. The settings on record: in vivo. In kind it is ADME, organism-based. Details: dose 0.5 mg/kg, route intravenous.
The nature of series [7]: Volume of distribution at steady state in rat at 0.5 mg/kg, iv. The settings on record: in vivo, read-out: Vdss. Details: dose 0.5 mg/kg, route intravenous. It counts as ADME, organism-based.
A short description of series [8]: Oral bioavailability in mouse at 5 mg/kg. In kind it is ADME, organism-based. The settings on record: in vivo.
A short description of series [9]: Drug metabolism in rat hepatocytes assessed as 2-(2-(((3R,5R,6S)-1-((S)-2-(tert-butylsulfonyl)-1-cyclopropylethyl)-6-(4-chloro-3-fluorophenyl)-5-(3-chlorophenyl)-3-methyl-2-oxopiperidin-3-yl)methyl)thiazol-5-yl)acetic acid formation at 10 uM after 2 hrs by LC-MS/MS analysis. In kind it is ADME, cell-based, Hepatocyte.
Series [10] in a line: Drug metabolism in human hepatocytes assessed as 2-(2-(((3R,5R,6S)-1-((S)-2-(tert-butylsulfonyl)-1-cyclopropylethyl)-6-(4-chloro-3-fluorophenyl)-5-(3-chlorophenyl)-3-methyl-2-oxopiperidin-3-yl)methyl)thiazol-5-yl)acetic acid metabolite formation at 10 uM after 2 hrs by LC-MS/MS analysis. In kind it is ADME, cell-based, Hepatocyte.
Series [11] in a line: Drug metabolism in dog hepatocytes assessed as oxidative metabolite formation at 10 uM after 2 hrs by LC-MS/MS analysis. In kind it is ADME, cell-based, Canis lupus familiaris, Hepatocyte.
The nature of series [12]: Drug metabolism in dog hepatocytes assessed as 2-(2-(((3R,5R,6S)-1-((S)-2-(tert-butylsulfonyl)-1-cyclopropylethyl)-6-(4-chloro-3-fluorophenyl)-5-(3-chlorophenyl)-3-methyl-2-oxopiperidin-3-yl)methyl)thiazol-5-yl)acetic acid formation at 10 uM after 2 hrs by LC-MS/MS analysis. In kind it is ADME, cell-based, Canis lupus familiaris, Hepatocyte.
The nature of series [13]: Drug metabolism in monkey hepatocytes assessed as 2-(2-(((3R,5R,6S)-1-((S)-2-(tert-butylsulfonyl)-1-cyclopropylethyl)-6-(4-chloro-3-fluorophenyl)-5-(3-chlorophenyl)-3-methyl-2-oxopiperidin-3-yl)methyl)thiazol-5-yl)acetic acid formation at 10 uM after 2 hrs by LC-MS/MS analysis. It counts as ADME, cell-based, Macaca mulatta, Hepatocyte. The settings on record: rhesus monkey.

A short description of series [14]: Drug metabolism in monkey hepatocytes assessed as oxidative metabolite formation at 10 uM after 2 hrs by LC-MS/MS analysis. It counts as ADME, cell-based, Macaca mulatta, Hepatocyte. The settings on record: rhesus monkey.
Series [15] can be described thus: Drug metabolism in mouse hepatocytes assessed as 2-(2-(((3R,5R,6S)-1-((S)-2-(tert-butylsulfonyl)-1-cyclopropylethyl)-6-(4-chloro-3-fluorophenyl)-5-(3-chlorophenyl)-3-methyl-2-oxopiperidin-3-yl)methyl)thiazol-5-yl)acetic acid formation at 10 uM after 2 hrs by LC-MS/MS analysis. It counts as ADME, cell-based, Hepatocyte.
Series [16] in a line: Drug metabolism in mouse hepatocytes assessed as oxidative metabolite formation at 10 uM after 2 hrs by LC-MS/MS analysis. In kind it is ADME, cell-based, Hepatocyte.
Series [17] in a line: Drug metabolism in rat hepatocytes assessed as oxidative metabolite formation at 10 uM after 2 hrs by LC-MS/MS analysis. It counts as ADME, cell-based, Hepatocyte.
Series [18] in a line: Drug metabolism in human hepatocytes assessed as oxidative metabolite formation at 10 uM after 2 hrs by LC-MS/MS analysis. In kind it is ADME, cell-based, Hepatocyte.

SMILES strings stand for the structures.

For `CC(C)(C)S(=O)(=O)C[C@H](C1CC1)N1C(=O)[C@@](C)(Cc2nnc(CC(=O)O)[nH]2)C[C@H](c2cccc(Cl)c2)[C@H]1c1ccc(Cl)cc1`, the hepatocyte CLint in series [1] was 10 µL/min/1e6 cells.

For `CC(C)(C)S(=O)(=O)C[C@H](C1CC1)N1C(=O)[C@@](C)(Cc2ccc(CC(=O)O)cn2)C[C@H](c2cccc(Cl)c2)[C@H]1c1ccc(Cl)cc1`, the hepatocyte CLint in [1] was 3.4 µL/min/1e6 cells.

`CC(C)(C)S(=O)(=O)C[C@H](C1CC1)N1C(=O)[C@@](C)(Cc2ccc(C(=O)O)cn2)C[C@H](c2cccc(Cl)c2)[C@H]1c1ccc(Cl)c(F)c1`: the hepatocyte CLint in series [1] amounted to 7.8 µL/min/1e6 cells.

For the compound `CC(C)(C)S(=O)(=O)C[C@H](C1CC1)N1C(=O)[C@@](C)(Cc2ncc(C(=O)O)s2)C[C@H](c2cccc(Cl)c2)[C@H]1c1ccc(Cl)cc1`, the clearance in series [2] was 5.83 mL/min/kg; in [3] it was 3.17 mL/min/kg. The Vd stood at 0.67 L/kg in [4] and 0.18 L/kg in series [7]. Further, in [1], the hepatocyte CLint stood at 8.7 µL/min/1e6 cells. The half-life in series [5] was 3.6 h; in series [6] it was 3.3 h. The same compound came in with a bioavailability in series [8] of 18%.

On to `CC(C)(C)S(=O)(=O)C[C@H](C1CC1)N1C(=O)[C@@](C)(Cc2ncc(C(=O)O)s2)C[C@H](c2cccc(Cl)c2)[C@H]1c1ccc(Cl)c(F)c1`, for which the clearance in series [2] was 2.5 mL/min/kg; in series [3], 1.5 mL/min/kg. The Vd in series [4] worked out at 0.53 L/kg; in series [7], 0.41 L/kg. In addition, the hepatocyte CLint in series [1] amounted to 10 µL/min/1e6 cells. Moreover, the figures for the half-life in series [5] and in series [6] were 2.3 h and 4.1 h, respectively. Besides, in [8], the bioavailability came to 36%.

In the case of `CC(C)(C)S(=O)(=O)C[C@H](C1CC1)N1C(=O)[C@@](C)(Cc2ncc(CC(=O)O)s2)C[C@H](c2cccc(Cl)c2)[C@H]1c1ccc(Cl)c(F)c1`, the Drug metabolism entry is on record as “metabolite_notdetected” in series [9]; “metabolite_notdetected” in [10]; “metabolite_detected” in series [11]; “metabolite_notdetected” in [12]; “metabolite_notdetected” in series [13]; “metabolite_detected” in series [14]. In addition, the Drug metabolism entry in series [15] is given as “metabolite_notdetected”; in series [16] it was “metabolite_detected”; in series [17], “metabolite_detected”; in series [18] it was “metabolite_detected”. Besides, the clearance in series [2] is 2.5 mL/min/kg; in [3], 3.83 mL/min/kg. In addition, the Vd came out at 0.35 L/kg in series [4] and 0.27 L/kg in [7]. Also, the hepatocyte CLint in series [1] is 5.5 µL/min/1e6 cells. For the same compound, the results for the half-life in series [5] and in series [6] were 4.4 h and 3.2 h, respectively. The compound further had a bioavailability in series [8] of 56%.

On to `CC(C)(C(=O)O)c1ccc(C[C@@]2(C)C[C@H](c3cccc(Cl)c3)[C@@H](c3ccc(Cl)cc3)N([C@H](CS(=O)(=O)C(C)(C)C)C3CC3)C2=O)nc1`, for which the hepatocyte CLint in series [1] is less than 0.1 µL/min/1e6 cells.

On to `CC(C)(C)S(=O)(=O)C[C@H](C1CC1)N1C(=O)[C@@](C)(Cc2nccs2)C[C@H](c2cccc(Cl)c2)[C@H]1c1ccc(Cl)c(F)c1`, for which the hepatocyte CLint in series [1] came out at 14 µL/min/1e6 cells.

Consider `Cc1cc(C[C@@]2(C)C[C@H](c3cccc(Cl)c3)[C@@H](c3ccc(Cl)cc3)N([C@H](CS(=O)(=O)C(C)(C)C)C3CC3)C2=O)ncc1C(=O)O`, for which the hepatocyte CLint in series [1] was determined as 5.1 µL/min/1e6 cells.

Turning to `CC(C)(C)S(=O)(=O)C[C@H](C1CC1)N1C(=O)[C@@](C)(Cc2nc(C(=O)O)cs2)C[C@H](c2cccc(Cl)c2)[C@H]1c1ccc(Cl)cc1`, the hepatocyte CLint in series [1] came to 1.8 µL/min/1e6 cells.

Regarding `CC(C)(C)S(=O)(=O)C[C@H](C1CC1)N1C(=O)[C@@](C)(Cc2cnc(C(=O)O)cn2)C[C@H](c2cccc(Cl)c2)[C@H]1c1ccc(Cl)cc1`, in series [1], the hepatocyte CLint was 25 µL/min/1e6 cells.

As to `CC(C)(C)S(=O)(=O)C[C@H](C1CC1)N1C(=O)[C@@](C)(Cc2ccc(C(=O)O)cn2)C[C@H](c2cccc(Cl)c2)[C@H]1c1ccc(Cl)cc1`, the clearance in series [2] was 3.83 mL/min/kg; in [3], 6 mL/min/kg. In addition, the figures for the Vd in series [4] and in series [7] were 0.57 L/kg and 0.41 L/kg, respectively. Moreover, the hepatocyte CLint in [1] was 10 µL/min/1e6 cells. The values for the half-life in series [5] and in series [6] were 1.8 h and 2.8 h, respectively. Also, the bioavailability in [8] is 60%.

On to `CC(C)(C)S(=O)(=O)C[C@H](C1CC1)N1C(=O)[C@@](C)(Cc2ncc(CC(=O)O)o2)C[C@H](c2cccc(Cl)c2)[C@H]1c1ccc(Cl)c(F)c1`, for which the hepatocyte CLint in series [1] was 4.3 µL/min/1e6 cells.

Consider `CC(C)(C)S(=O)(=O)C[C@H](C1CC1)N1C(=O)[C@@](C)(Cc2nc(CC(=O)O)cs2)C[C@H](c2cccc(Cl)c2)[C@H]1c1ccc(Cl)cc1`, for which the hepatocyte CLint in series [1] came out at 5.3 µL/min/1e6 cells.

As to `CC(C)(C)S(=O)(=O)C[C@H](C1CC1)N1C(=O)[C@@](C)(Cc2ncc(C(F)(F)C(=O)O)s2)C[C@H](c2cccc(Cl)c2)[C@H]1c1ccc(Cl)c(F)c1`, the hepatocyte CLint in series [1] was found to be 4.7 µL/min/1e6 cells.

On to `CC(C)(C)S(=O)(=O)C[C@H](C1CC1)N1C(=O)[C@@](C)(Cn2cc(C(=O)O)cn2)C[C@H](c2cccc(Cl)c2)[C@H]1c1ccc(Cl)cc1`, for which the hepatocyte CLint in series [1] came to 2.8 µL/min/1e6 cells.

As for `CC(C)(C)S(=O)(=O)C[C@H](C1CC1)N1C(=O)[C@@](C)(Cc2ncc(C(=O)O)cn2)C[C@H](c2cccc(Cl)c2)[C@H]1c1ccc(Cl)cc1`, the hepatocyte CLint in [1] is 10 µL/min/1e6 cells.

Consider `CC(C)(C)S(=O)(=O)C[C@H](C1CC1)N1C(=O)[C@@](C)(Cc2ncc(CC(=O)O)s2)C[C@H](c2cccc(Cl)c2)[C@H]1c1ccc(Cl)cc1`, for which the clearance is 7.17 mL/min/kg in series [2] and 22.8 mL/min/kg in [3]. The Vd in [4] came out at 0.72 L/kg; in series [7], 0.74 L/kg. The hepatocyte CLint in series [1] came to 5.8 µL/min/1e6 cells. Further, the figures for the half-life in series [5] and in series [6] were 1.81 h and 2.01 h, respectively. In addition, the bioavailability in [8] came out at 10%.

Regarding `CC(C)(C)S(=O)(=O)C[C@H](C1CC1)N1C(=O)[C@@](C)(Cc2ncc(C3(C(=O)O)CC3)s2)C[C@H](c2cccc(Cl)c2)[C@H]1c1ccc(Cl)cc1`, in [1], the hepatocyte CLint was found to be 7.7 µL/min/1e6 cells.

On to `CC(C)(C(=O)O)c1cnc(C[C@@]2(C)C[C@H](c3cccc(Cl)c3)[C@@H](c3ccc(Cl)cc3)N([C@H](CS(=O)(=O)C(C)(C)C)C3CC3)C2=O)s1`, for which the hepatocyte CLint in series [1] is 3.6 µL/min/1e6 cells.

Consider `CC(C)(C)S(=O)(=O)C[C@H](C1CC1)N1C(=O)[C@@](C)(Cc2ncc(C(=O)CO)s2)C[C@H](c2cccc(Cl)c2)[C@H]1c1ccc(Cl)cc1`, for which the hepatocyte CLint in [1] amounted to 47 µL/min/1e6 cells.

In the case of `CC(C)(C)S(=O)(=O)C[C@H](C1CC1)N1C(=O)[C@@](C)(Cc2ncc(CC(=O)O)[nH]2)C[C@H](c2cccc(Cl)c2)[C@H]1c1ccc(Cl)cc1`, the hepatocyte CLint in series [1] stood at 5 µL/min/1e6 cells.

`Cc1nc(C[C@@]2(C)C[C@H](c3cccc(Cl)c3)[C@@H](c3ccc(Cl)cc3)N([C@H](CS(=O)(=O)C(C)(C)C)C3CC3)C2=O)ccc1C(=O)O`: the hepatocyte CLint in series [1] was 26 µL/min/1e6 cells.

In the case of `CC(C)(C)S(=O)(=O)C[C@H](C1CC1)N1C(=O)[C@@](C)(Cc2ncc(C(=O)O)cn2)C[C@H](c2cccc(Cl)c2)[C@H]1c1ccc(Cl)c(F)c1`, the hepatocyte CLint in series [1] is 14 µL/min/1e6 cells.
